From ChEMBL document CHEMBL5252509, “In depth analysis of kinase cross screening data to identify chemical starting points for inhibition of the Nek family of kinases” (Medchemcomm, 2018)

Target: T1, Serine/threonine-protein kinase Nek10 (Homo sapiens) (UniProt Q6ZWH5)
T1 sequence (whole entry): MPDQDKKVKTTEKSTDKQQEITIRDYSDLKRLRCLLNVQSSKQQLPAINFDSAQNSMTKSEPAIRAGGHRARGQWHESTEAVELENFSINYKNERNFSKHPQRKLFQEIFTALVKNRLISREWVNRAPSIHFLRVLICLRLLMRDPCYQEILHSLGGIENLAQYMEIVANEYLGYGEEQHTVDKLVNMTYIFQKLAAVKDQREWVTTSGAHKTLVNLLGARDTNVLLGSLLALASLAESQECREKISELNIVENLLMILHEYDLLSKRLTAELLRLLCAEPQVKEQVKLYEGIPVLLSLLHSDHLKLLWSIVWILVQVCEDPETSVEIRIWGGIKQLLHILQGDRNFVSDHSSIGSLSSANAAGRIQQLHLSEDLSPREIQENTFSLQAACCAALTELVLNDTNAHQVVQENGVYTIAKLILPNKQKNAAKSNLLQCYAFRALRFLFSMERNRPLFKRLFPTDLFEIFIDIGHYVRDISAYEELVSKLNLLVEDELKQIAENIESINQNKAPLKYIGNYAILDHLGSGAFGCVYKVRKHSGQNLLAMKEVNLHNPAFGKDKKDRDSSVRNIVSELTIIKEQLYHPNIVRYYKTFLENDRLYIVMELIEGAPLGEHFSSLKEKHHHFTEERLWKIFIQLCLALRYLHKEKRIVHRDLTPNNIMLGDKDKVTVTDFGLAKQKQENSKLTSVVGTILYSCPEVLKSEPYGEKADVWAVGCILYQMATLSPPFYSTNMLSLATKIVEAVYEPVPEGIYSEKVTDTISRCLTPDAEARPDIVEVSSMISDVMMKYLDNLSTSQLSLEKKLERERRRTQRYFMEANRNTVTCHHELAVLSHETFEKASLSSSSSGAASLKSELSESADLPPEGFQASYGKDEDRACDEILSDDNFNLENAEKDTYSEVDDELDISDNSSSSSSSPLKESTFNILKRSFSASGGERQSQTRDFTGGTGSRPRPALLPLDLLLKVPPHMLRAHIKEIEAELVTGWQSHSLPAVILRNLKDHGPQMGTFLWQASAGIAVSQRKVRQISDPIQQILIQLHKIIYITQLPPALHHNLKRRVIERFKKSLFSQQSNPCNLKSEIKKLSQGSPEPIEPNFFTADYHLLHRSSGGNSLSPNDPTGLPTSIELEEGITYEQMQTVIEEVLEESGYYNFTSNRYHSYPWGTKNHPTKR
Test: Inhibition of NEK10 (unknown origin) at 10 uM relative to control

- % control: 0%
SMILES: O=C1NC(=O)/C(=C/c2ccc3nccc(-c4ccncc4)c3c2)S1
